The values that follow come from patent publication US7923450B2, “Modulators for amyloid beta” (Hoffmann-La Roche Inc., priority 2008, dated 2011).

Each structure is given as a SMILES string.

The subject of series [1] is γ-secretase. The series is described as follows: Cellular γ-secretase assay (Aβ42 secretion). The following applies: inhibition of Aβ42 secretion; human neuroglioma H4 cells overexpressing human APP; 22 hrs incubation; read-out: EC50 in vitro. The class given is cell-based. Here is the method: Cellular γ-Secretase Assay
Human neuroglioma H4 cells overexpressing human APP were plated at 30,000 cells/well/200 μl in 96-well plates in IMDM media containing 10% FCS, 0.2 mg/l Hygromycin B and incubated for 2 h at 37° C., 5% CO2 prior to adding test compounds.
Compounds for testing were dissolved in 100% Me2SO yielding in a 10 mM stock solution. Typically 12 μl of these solutions were further diluted in 1000 μl of IMDM media (w/o FCS,). Sub sequential 1:1 dilutions gave a ten point dose response curve. 100 μl of each dilution was added to the cells in 96-well plates. Appropriate controls using vehicle only and reference compound were applied to this assay. The final concentration of Me2SO was 0.4%.
After incubation for 22 hrs at 37° C., 5% CO2, 50 μl supernatant was transferred into round-bottom 96-well polypropylene plates for detection of Aβ42. 50 μl assay buffer (50 mM Tris/Cl, pH 7.4, 60 mM NaCl, 0.5% BSA, 1% TWEEN 20) was added to the wells followed by the addition of 100 μl of detection antibody (ruthenylated Aβ42-specific antibody BAP15 0.0625 μg/mL in assay buffer). 50 μl of a premix of capture antibody (biotinylated 6E10 antibody, 1 μg/mL) and Steptavidin-coated magnetic beads (Dynal M-280, 0.125 mg/mL) were preincubated for 1 hr at room temperature before adding the assay plates. Assay plates were incubated on a shaker for 3 hrs at room temperature and finally read in the Bioveris M8 Analyser according to the manufacturer's instructions (Bioveris).
EC50 values for inhibition of Aβ42 secretion were calculated by nonlinear regression fit analysis using XLfit 4.0 software (IDBS).

On to `COc1cc(Nc2nc3c(s2)CCCC3(C)c2ccccc2)ccc1-n1cnc(C)c1` (centres unmarked) [Example 30, [3-Methoxy-4-(4-methyl-imidazol-1-yl)-phenyl]-(4-methyl-4-phenyl-4,5,6,7-tetrahydro-benzothiazol-2-yl)-amine], for which the melting point (commonly the temperature, or range, at which the solid turns liquid) was 123 to 126 °C. For the same compound, the concentration for a half-maximal effect (EC50) (as a rule, the concentration at which the effect is half-maximal) in series [1] came out at 300 nM.
The like results for `Cc1cn(-c2ccc(Nc3nc4c(s3)CCCC4c3ccc(C)c(C(F)(F)F)c3)cc2F)cn1` (centres unmarked) [Example 32, [3-Fluoro-4-(4-methyl-imidazol-1-yl)-phenyl]-[4-(4-methyl-3-trifluoromethyl-phenyl)-4,5,6,7-tetrahydro-benzothiazol-2-yl]-amine] were, in that order, 160 to 163 °C and 260 nM.
The like results for `Cc1cn(-c2ccc(Nc3nc4c(s3)CCCC4c3ccccc3Cl)cc2F)cn1` (centres unmarked) [Example 33, [4-(2-Chloro-phenyl)-4,5,6,7-tetrahydro-benzothiazol-2-yl]-[3-fluoro-4-(4-methyl-imidazol-1-yl)-phenyl]-amine] were, in that order, 204 to 206 °C and 430 nM.
Compound `COc1ccccc1C1CCCc2sc(Nc3ccc(-n4cnc(C)c4)c(F)c3)nc21` (centres unmarked) [Example 35, [3-Fluoro-4-(4-methyl-imidazol-1-yl)-phenyl]-[4-(2-methoxy-phenyl)-4,5,6,7-tetrahydro-benzothiazol-2-yl]-amine] came in with a melting point of 227 to 230 °C. Also, the 50% effective concentration (EC50) in series [1] amounted to 340 nM.
Compound `Cc1cn(-c2ccc(Nc3nc4c(s3)CCCC4c3ccc(Cl)cc3Cl)cc2F)cn1` (centres unmarked) [Example 36, [4-(2,4-Dichloro-phenyl)-4,5,6,7-tetrahydro-benzothiazol-2-yl]-[3-fluoro-4-(4-methyl-imidazol-1-yl)-phenyl]-amine] came in with a melting point of 136 to 139 °C. Besides, the EC50 in series [1] stood at 460 nM.
For `COc1cc(Nc2ncc3c(n2)C(c2ccc(Cl)cc2)CCC3)ccc1-n1cnc(C)c1` (centres unmarked) [Example 50, [8-(4-Chloro-phenyl)-5,6,7,8-tetrahydro-quinazolin-2-yl]-[3-methoxy-4-(4-methyl-imidazol-1-yl)-phenyl]-amine], the melting point was 210 to 212 °C. Also, in series [1], the EC50 was found to be 380 nM.
In the case of `Cc1cn(-c2ccc(Nc3ncc4c(n3)C(c3ccc(F)cc3)CCC4)cc2F)cn1` (centres unmarked) [Example 60, [3-Fluoro-4-(4-methyl-imidazol-1-yl)-phenyl]-[8-(4-fluoro-phenyl)-5,6,7,8-tetrahydro-quinazolin-2-yl]-amine], the melting point was 201 to 203 °C. For the same compound, the EC50 in series [1] amounted to 500 nM.
For the compound `COc1cc(Nc2ncc3c(n2)C(C(=O)N(C)C)CCC3)ccc1-n1cnc(C)c1` (centres unmarked) [Example 86, 2-[3-Methoxy-4-(4-methyl-imidazol-1-yl)-phenylamino]-5,6,7,8-tetrahydro-quinazoline-8-carboxylic acid dimethylamide], the melting point was in the range of 150 to 152 °C.
As for `COc1cc(Nc2ncc3c(n2)C(C(=O)N2CCCC2)CCC3)ccc1-n1cnc(C)c1` (centres unmarked) [Example 87, {2-[3-Methoxy-4-(4-methyl-imidazol-1-yl)-phenylamino]-5,6,7,8-tetrahydro-quinazolin-8-yl}-pyrrolidin-1-yl-methanone], the melting point fell in the range of 94 to 95 °C.
The compound `COc1cc(Nc2nc3c(s2)CCCC3c2ccccc2)ccc1-c1nc(C)no1` (centres unmarked) [Example 89, [3-Methoxy-4-(3-methyl-[1,2,4]oxadiazol-5-yl)-phenyl]-(4-phenyl-4,5,6,7-tetrahydro-benzothiazol-2-yl)-amine] came in with a melting point of 228 to 231 °C.
